# Where a name gives a salt, the structure may show the parent alone.
# Assays:
# [1] = tested on: Klebsiella aerogenes; test: assay of activity in units against culture filtrate; assay type: cell-based
# Description: The MM 4550 (Complex) was eluted from the resin with 5% NaCl in 50% aqueous methanol. […] The MM 4550 (Complex) content of culture filtrate was arbitrarily set at 8 units/ml. The eluted fractions from the column were assayed using an antibacterial diffusion method against Klebsiella aerogenes and the activity units were calculated by reference to a standard line prepared by plotting zone diameter against units/ml. for various dilutions of culture filtrate (i.e. the culture filtrate was used as a standard).
# The material produced above was arbitrarily assigned an activity of 340 l/ml. Assays were determined as described in Description 3.
# [2] = tested on: Serratia marcescens US 39; test: MIC, microtitre method (Table 10); assay type: cell-based; conditions: heavy inoculum, 1/100 overnight broth
# Description: (§1) Partially purified MM 4550Adi-sodium salt (0.55 g) was chromatographed on a cellulose column (4.5 cm×29 cm; Whatman CC31 cellulose) eluted with n-propanol/water (4:1 v/v) at a flow rate of 2.5 ml./min. The first 135 ml of eluate was discarded and then 15 ml fractions collected.
# (§2) ANTIBACTERIAL ACTIVITY OF THE DI-SODIUM
# (§3) SALT OF MM 4550A ([…]-HEAVY
# (§4) INOCULUM, 1/100 OVERNIGHT BROTH
# [3] = tested on: Staph. aureus Oxford; test: MIC, microtitre method (Table 10); assay type: cell-based; conditions: heavy inoculum, 1/100 overnight broth
# Description: as §1, §2, §3, §4
# [4] = tested on: Bacillus subtilis A; test: MIC, microtitre method (Table 10); assay type: cell-based; conditions: heavy inoculum, 1/100 overnight broth
# Description: as §1, §2, §3, §4
# [5] = tested on: Kleb. aerogenes A; test: MIC, microtitre method (Table 10); assay type: cell-based; conditions: heavy inoculum, 1/100 overnight broth
# Description: as §1, §2, §3, §4
# [6] = tested on: Staph. aureus Russell; test: MIC, microtitre method (Table 10); assay type: cell-based; conditions: heavy inoculum, 1/100 overnight broth
# Description: as §1, §2, §3, §4
# [7] = tested on: Salmonella typhimurium CT 10; test: MIC, microtitre method (Table 10); assay type: cell-based; conditions: heavy inoculum, 1/100 overnight broth
# Description: as §1, §2, §3, §4
# [8] = tested on: Enterobacter cloacae N1; test: MIC, microtitre method (Table 10); assay type: cell-based; conditions: heavy inoculum, 1/100 overnight broth
# Description: as §1, §2, §3, §4
# [9] = tested on: Ps. aeruginosa A; test: MIC, microtitre method (Table 10); assay type: cell-based; conditions: heavy inoculum, 1/100 overnight broth
# Description: as §1, §2, §3, §4
# [10] = tested on: Prov. stuartii; test: MIC, microtitre method (Table 10); assay type: cell-based; conditions: heavy inoculum, 1/100 overnight broth
# Description: as §1, §2, §3, §4
# [11] = tested on: Proteus mirabilis 13; test: MIC, microtitre method (Table 10); assay type: cell-based; conditions: heavy inoculum, 1/100 overnight broth
# Description: as §1, §2, §3, §4
# [12] = tested on: Shigella sonnei; test: MIC, microtitre method (Table 10); assay type: cell-based; conditions: heavy inoculum, 1/100 overnight broth
# Description: as §1, §2, §3, §4
# [13] = tested on: Proteus vulgaris WO 90; test: MIC, microtitre method (Table 10); assay type: cell-based; conditions: heavy inoculum, 1/100 overnight broth
# Description: as §1, §2, §3, §4
# [14] = tested on: Strep. faecalis; test: MIC, microtitre method (Table 10); assay type: cell-based; conditions: heavy inoculum, 1/100 overnight broth
# Description: as §1, §2, §3, §4
# [15] = tested on: Escherichia coli, Klebsiella aerogenes, Proteus mirabilis, Proteus morganii and Staphylococcus aureus Russell; test: synergism with ampicillin (property list); assay type: cell-based, bacteria; conditions: sodium salt
# [16] = tested on: Staphylococcus aureus (Oxford); test: antibacterial activity by bioautography (Table 4); assay type: cell-based; conditions: TLC with cellulose, butanol/isopropyl alcohol/water 7:7:6 v/v
# Excerpt: (§5) Analysis of the preparation by thin layer chromatography on cellulose (Eastman Kodak "Chromagram" sheets) developed with n-butanol; isopropanol:water (7:7:6) separated two active substances, one with an approximate Rf of 0.54 which was designated MM 4550 A and one with an approximate Rf of 0.72 which was designated MM 13902.
# (§6) 13902 AS DETERMINED BY BIOAUTOGRAPHY (TLC
# (§7) WITH CELLULOSE AND BUTONAL/ISOPROPYL
# (§8) ALCOHOL/WATER 7:7:6 v/v)
# [17] = tested on: Bacillus subtilis; test: antibacterial activity by bioautography (Table 4); assay type: cell-based; conditions: TLC with cellulose, butanol/isopropyl alcohol/water 7:7:6 v/v
# Excerpt: as §5, §6, §7, §8
# [18] = tested on: Escherichia coli 311; test: antibacterial activity by bioautography (Table 4); assay type: cell-based; conditions: TLC with cellulose, butanol/isopropyl alcohol/water 7:7:6 v/v
# Excerpt: as §5, §6, §7, §8
# [19] = tested on: Enterobacter aerogenes; test: antibacterial activity by bioautography (Table 4); assay type: cell-based; conditions: TLC with cellulose, butanol/isopropyl alcohol/water 7:7:6 v/v
# Excerpt: as §5, §6, §7, §8
# [20] = tested on: Salmonella typhi; test: antibacterial activity by bioautography (Table 4); assay type: cell-based; conditions: TLC with cellulose, butanol/isopropyl alcohol/water 7:7:6 v/v
# Excerpt: as §5, §6, §7, §8
# [21] = tested on: Escherichia coli 10418; test: antibacterial activity by bioautography (Table 4); assay type: cell-based; conditions: TLC with cellulose, butanol/isopropyl alcohol/water 7:7:6 v/v
# Excerpt: as §5, §6, §7, §8
# [22] = tested on: Staphylococcus aureus (Russell); test: antibacterial activity by bioautography (Table 4); assay type: cell-based; conditions: TLC with cellulose, butanol/isopropyl alcohol/water 7:7:6 v/v
# Excerpt: as §5, §6, §7, §8
# [23] = tested on: Proteus morganii; test: antibacterial activity by bioautography (Table 4); assay type: cell-based; conditions: TLC with cellulose, butanol/isopropyl alcohol/water 7:7:6 v/v
# Excerpt: as §5, §6, §7, §8
# [24] = tested on: Klebsiella aerogenes; test: antibacterial activity by bioautography (Table 4); assay type: cell-based; conditions: TLC with cellulose, butanol/isopropyl alcohol/water 7:7:6 v/v
# Excerpt: as §5, §6, §7, §8
# [25] = tested on: Proteus mirabilis; test: antibacterial activity by bioautography (Table 4); assay type: cell-based; conditions: TLC with cellulose, butanol/isopropyl alcohol/water 7:7:6 v/v
# Excerpt: as §5, §6, §7, §8
# [26] = tested on: Staphylococcus aureus, Bacillus subtilis, Escherichia coli, Klebsiella aerogenes, Proteus mirabilis, Salmonella typhi and Pseudomonas aeruginosa; test: antibacterial activity (property list); assay type: cell-based, bacteria; conditions: sodium salt
# [27] = tested on: Staphylococcus aureus, Bacillus subtilis, Escherichia coli, Klebsiella aerogenes, Proteus mirabilis, Acinetobacter anitratus, Serratia marcescens and Shigella …; test: antibacterial activity (property list); assay type: cell-based, bacteria; conditions: substantially pure sodium salt
# [28] = stability; assay type: physicochemical
# [29] = tested on: chymotrypsin; test: enzyme inhibition (not a general enzyme poison); assay type: biochemical; conditions: at concentrations in excess of those required to inhibit the β-lactamase of E. coli
# [30] = tested on: monoamine oxidase; test: enzyme inhibition (not a general enzyme poison); assay type: biochemical; conditions: at concentrations in excess of those required to inhibit the β-lactamase of E. coli
# [31] = tested on: trypsin; test: enzyme inhibition (not a general enzyme poison); assay type: biochemical; conditions: at concentrations in excess of those required to inhibit the β-lactamase of E. coli
# [32] = tested on: urease; test: enzyme inhibition (not a general enzyme poison); assay type: biochemical; conditions: at concentrations in excess of those required to inhibit the β-lactamase of E. coli
# [33] = solubility; assay type: physicochemical; conditions: sodium salt
# [34] = tested on: carbonic anhydrase; test: enzyme inhibition (not a general enzyme poison); assay type: biochemical; conditions: at concentrations in excess of those required to inhibit the β-lactamase of E. coli
# [35] = tested on: dopa decarboxylase; test: enzyme inhibition (not a general enzyme poison); assay type: biochemical; conditions: at concentrations in excess of those required to inhibit the β-lactamase of E. coli
smiles,measurement,setting,value
CC(=O)N/C=C/[S+]([O-])C1=C(C(=O)O)N2C(=O)C(C(C)OS(=O)(=O)O)C2C1 (stereo not drawn) [di-sodium salt of MM 4550A],activity,"[1]; Example 3, yellowish powder (87 mg) after cellulose column","6,600 units/mg"
same,MIC,[2],20 µg/mL
same,MIC,[3],20 µg/mL
same,MIC,[4],25 µg/mL
same,MIC,[5],2.5 µg/mL
same,MIC,[6],20 µg/mL
same,MIC,[7],5 µg/mL
same,MIC,[8],100 µg/mL
same,MIC,[9],> 100 µg/mL
same,MIC,[10],5 µg/mL
same,MIC,[11],10 µg/mL
same,MIC,[12],5 µg/mL
same,MIC,[13],5 µg/mL
same,MIC,[14],100 µg/mL
CC(=O)N/C=C/SC1=C(C(=O)O)N2C(=O)C(C(C)OS(=O)(=O)O)C2C1 (stereo not drawn) [MM 13902],synergism when mixed with ampicillin,[15],synergyses its activity
same,Zone Diameter on Bioautography,[16],4.0 mm
same,Zone Diameter on Bioautography,[17],15.0 mm
same,Zone Diameter on Bioautography,[18],10.5 mm
same,Zone Diameter on Bioautography,[19],No Zone
same,Zone Diameter on Bioautography,[20],21.0 mm
same,Zone Diameter on Bioautography,[21],13.5 mm
same,Zone Diameter on Bioautography,[22],4.0 mm
same,Zone Diameter on Bioautography,[23],9.5 mm
same,Zone Diameter on Bioautography,[24],20.0 mm
same,Zone Diameter on Bioautography,[25],13.5 mm
same,antibacterial activity,[26],possesses antibacterial activity
CC(=O)N/C=C/[S+]([O-])C1=C(C(=O)O)N2C(=O)C(C(C)OS(=O)(=O)O)C2C1 (stereo not drawn) [MM 4550A],antibacterial activity,[27],possesses antibacterial activity
same,stability for isolation from mixtures,[28]; monobasic salts and free acid,not sufficiently stable to isolate from mixtures
same,stability,[28]; unsalted acid form,tends to be unstable
same,inhibition of chymotrypsin,[29],does not inhibit
same,activity,"[1]; Example 3, partially purified salt (2.18 g brown solid)","3,100 units/mg"
same,inhibition of monoamine oxidase,[30],does not inhibit
same,synergism when mixed with ampicillin,[15],synergizes its activity
same,Zone Diameter on Bioautography,[16],13.0 mm
same,Zone Diameter on Bioautography,[17],24.0 mm
same,Zone Diameter on Bioautography,[19],6.5 mm
same,Zone Diameter on Bioautography,[20],19.5 mm
same,Zone Diameter on Bioautography,[21],20.0 mm
same,Zone Diameter on Bioautography,[22],12.0 mm
same,Zone Diameter on Bioautography,[23],16.0 mm
same,Zone Diameter on Bioautography,[24],20.0 mm
same,inhibition of trypsin,[31],does not inhibit
same,inhibition of urease,[32],does not inhibit
same,"solubility in chloroform, diethylether and hydrocarbons",[33],substantially insoluble
same,solubility in methanol,[33],soluble
same,solubility in water,[33],highly soluble
same,inhibition of carbonic anhydrase,[34],does not inhibit
same,inhibition of dopa decarboxylase,[35],does not inhibit
